The text below walks through data of PubChem BioAssay (NCI).

Where “and” joins values, the source holds several entries; their conditions need not be identical. Identical values can stand only once.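 Test compounds were applied to cells in 96-well plates for 48 hours at 5 doses. The concentration for 50% growth inhibition is given as GI50. TGI denotes the concentration required for complete inhibition of growth.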

Some test systems named below: A549 NSCLC; HOP-62 NSCLC; MOLT-4 leukemia; NCI-H522 lung; SF-268 CNS; SF-295 CNS; SNB-19 CNS; U251 CNS; UACC-257 melanoma.
What all share (assay): DTP human tumour cell line panel, 48 h

With `CCCCCCCCCCCc1nnc(N)o1`, the TGI with A549 NSCLC, with HOP-62 NSCLC, with MOLT-4 leukemia, with NCI-H522 lung, with SF-268 CNS and with SF-295 CNS was above 100 µM in each case. Also, the figures for the TGI in the assay on SNB-19 CNS, in the assay on U251 CNS and with UACC-257 melanoma were 50.7 µM, above 100 µM and above 100 µM, respectively.
Take `COc1cc(Br)c(C=Nc2cccc3cc(OC)c(OC)cc23)cc1OC`: the TGI is above 100 µM in the assay on A549 NSCLC; above 100 µM in the assay with HOP-62 NSCLC; above 100 µM in the assay on MOLT-4 leukemia; above 100 µM in the assay on NCI-H522 lung; above 100 µM in the assay with SF-268 CNS; 73.4 µM with SF-295 CNS. Besides, the concentration for total growth inhibition (TGI) in the assay with SNB-19 CNS, in the assay on U251 CNS and with UACC-257 melanoma was above 100 µM in each case.
As to `O=C(NCCCCNc1cccccc1=O)OCc1ccccc1`, the total growth inhibition concentration (TGI) with A549 NSCLC, in the assay on HOP-62 NSCLC, in the assay with MOLT-4 leukemia, in the assay on NCI-H522 lung, in the assay on SF-268 CNS and in the assay with SF-295 CNS was above 100 µM each time. The TGI in the assay with SNB-19 CNS, in the assay with U251 CNS and in the assay with UACC-257 melanoma was above 100 µM in each case.
With `O=C(O)CCC(=O)N1c2ccccc2CC1c1c[nH]c2ccccc12` (configuration not stated), the TGI in the assay with A549 NSCLC, in the assay on HOP-62 NSCLC, in the assay with MOLT-4 leukemia, in the assay with NCI-H522 lung, in the assay with SF-268 CNS and in the assay on SF-295 CNS was above 100 µM throughout. For the same molecule, the TGI in the assay with SNB-19 CNS, in the assay on U251 CNS and in the assay with UACC-257 melanoma was above 100 µM throughout.
As to `COC1=C(N)C(=O)c2nc(C)ccc2C1=O`, the concentration for total growth inhibition (TGI) in the assay with A549 NSCLC was 4.57 µM; in the assay with HOP-62 NSCLC it was 2.94 µM; in the assay with MOLT-4 leukemia it was above 52.9 µM; in the assay on NCI-H522 lung, 3.21 µM; in the assay on SF-268 CNS, 4.17 µM; in the assay on SF-295 CNS, 3.18 µM. Further, the TGI is 3.83 µM in the assay with SNB-19 CNS, 5.69 µM in the assay on U251 CNS and 2.78 µM in the assay with UACC-257 melanoma.
With `Cc1nnn[n-]1.N.N.N.N.N.[Cl-].[Co+3]`, the GI50 in the assay on A549 NSCLC, in the assay with HOP-62 NSCLC, in the assay on MOLT-4 leukemia, in the assay on NCI-H522 lung, in the assay with SF-268 CNS and in the assay on SF-295 CNS was above 100 µM throughout. For the same molecule, the GI50 with SNB-19 CNS, in the assay on U251 CNS and with UACC-257 melanoma was above 100 µM each time. Besides, the TGI in the assay on A549 NSCLC, in the assay on HOP-62 NSCLC, in the assay on MOLT-4 leukemia, in the assay on NCI-H522 lung, with SF-268 CNS and in the assay with SF-295 CNS was above 100 µM throughout. In addition, the TGI in the assay on SNB-19 CNS, in the assay with U251 CNS and in the assay on UACC-257 melanoma was above 100 µM in each case.
In the case of `CC1(C)O[C@H]2[C@H](O)C[C@](O)(CO)C[C@H]2O1`, the TGI in the assay on A549 NSCLC, in the assay on MOLT-4 leukemia, in the assay with NCI-H522 lung, in the assay on SF-295 CNS, in the assay with SNB-19 CNS and in the assay with U251 CNS was above 100 µM throughout. Moreover, the concentration for total growth inhibition (TGI) in the assay on UACC-257 melanoma was above 100 µM.
Regarding `CCOC(=O)c1nn2c(nc1=O)sc1ccc3ccccc3c12`, the concentration for total growth inhibition (TGI) in the assay with A549 NSCLC, in the assay on HOP-62 NSCLC, with MOLT-4 leukemia, with SF-268 CNS, in the assay on SF-295 CNS and with SNB-19 CNS was above 100 µM in each case. The TGI in the assay with U251 CNS and in the assay with UACC-257 melanoma was above 100 µM each time.
Consider `CCN(CC)c1c(C(=O)/C=C/c2ccc(Cl)cc2)c(-c2ccccc2)nn(C)c1=O`, for which the TGI worked out at 3.89 µM with A549 NSCLC; 4.26 µM in the assay on HOP-62 NSCLC; 5.06 µM in the assay with MOLT-4 leukemia; 2.98 µM with NCI-H522 lung; 3.4 µM in the assay on SF-268 CNS; 3.38 µM in the assay with SF-295 CNS. In addition, the concentration for total growth inhibition (TGI) with SNB-19 CNS was found to be 3.98 µM; with U251 CNS, 3.18 µM; in the assay on UACC-257 melanoma, 3.76 µM.
As to `O=[N+]([O-])c1ccc(C[P+](c2ccccc2)(c2ccccc2)c2ccccc2)cc1`, the total growth inhibition concentration (TGI) in the assay with A549 NSCLC, with HOP-62 NSCLC, with MOLT-4 leukemia, with NCI-H522 lung, with SF-295 CNS and in the assay with SNB-19 CNS was above 100 µM throughout. Besides, the total growth inhibition concentration (TGI) in the assay with U251 CNS is above 100 µM; in the assay with UACC-257 melanoma it was 47.3 µM.
`CN(O)C(=O)SCC(NC(=O)CCC(N)C(=O)O)C(=O)NCC(=O)O` (configuration not stated): the GI50 was above 2000 µM with A549 NSCLC; above 2000 µM in the assay on HOP-62 NSCLC; above 2 µM in the assay with MOLT-4 leukemia; above 2000 µM with NCI-H522 lung; above 2 µM in the assay on SF-268 CNS; above 2000 µM in the assay on SNB-19 CNS. The GI50 in the assay on U251 CNS and in the assay on UACC-257 melanoma was above 2000 µM in each case. In addition, the TGI with A549 NSCLC was above 2000 µM; in the assay on HOP-62 NSCLC, > 2 µM and 313 µM and > 2000 µM; in the assay with MOLT-4 leukemia, above 2000 µM; with NCI-H522 lung, above 2000 µM; in the assay with SF-268 CNS, above 2000 µM; with SF-295 CNS it was above 2 µM. Further, the concentration for total growth inhibition (TGI) in the assay on SNB-19 CNS and in the assay with UACC-257 melanoma was above 2000 µM each time.
Take `O=C1N(C2CCCCC2)CC12CCCCC2`: the TGI in the assay with A549 NSCLC, in the assay with HOP-62 NSCLC, with MOLT-4 leukemia, in the assay on NCI-H522 lung, in the assay with SF-268 CNS and with SNB-19 CNS was above 100 µM throughout. For the same molecule, the concentration for total growth inhibition (TGI) in the assay with U251 CNS was above 100 µM.
With `O=C(O)CCCSC(=O)Nc1ccc(N=Nc2ccccc2)cc1`, the TGI in the assay with A549 NSCLC, in the assay on HOP-62 NSCLC, with MOLT-4 leukemia, in the assay with NCI-H522 lung, in the assay with SF-268 CNS and in the assay on SF-295 CNS was above 100 µM in each case. The total growth inhibition concentration (TGI) in the assay on SNB-19 CNS, in the assay with U251 CNS and in the assay with UACC-257 melanoma was above 100 µM throughout.
